Measured values from US20220322673A1, “Novel Agrochemical Combinations” (UPL LIMITED, priority 2019, published 2022).
Where two headings read alike, the source gives them in different places.

Experiments:
Format in all cases: in vivo
Okra Aphids = assay: Trials of Flonicamid and Orthosilicic acid on controlling Okra Aphids (Example 1); details: doses gm/ha: OSA + Flonicamid 625 + 50, Flonicamid 75, OSA 1250
Procedure: Trials were conducted to test the efficacy of the combination of Flonicamid and Orthosilicic acid on controlling Okra Aphids at different dosages.

Okra Mites = assay: Trials on controlling Okra Mites post 2nd and 3rd application (Example 2); details: doses gm/ha: OSA 625 + Flonicamid 50 / Acetamipirid 50 / Lancer Gold 650, solo OSA 1250, Flonicamid 75, Acetamipirid 50, Lancer gold 650; for Percent control Mean: Mean of B07, C-01, C-10
Procedure: Trials were conducted to test the efficacy of the combination of Flonicamid and Orthosilicic acid on controlling Okra Mites at different dosages post 2nd and 3rd application.

[1] = tested on: Okra Aphids (Aphis gossypii); details: for Percent control (%) of Okra Aphids, Nymphs + Adults, A01: A01 = 1 day after first spray; for Percent control (%) of Okra Aphids, Nymphs + Adults, A10: A10 (after 1st spray); for Percent control (%) of Okra Aphids, Nymphs + Adults, B03: B03 = 3 days after 2nd spray; for Percent control (%) of Okra Aphids, Nymphs + Adults, B07: B07 (after 2nd spray); for Percent control (%) of Okra Aphids, Nymphs + Adults, B10: B10 (after 2nd spray); for Percent control (%) of Okra Aphids, Nymphs + Adults, C03: C03 = 3 days after third spray; for Percent control (%) of Okra Aphids, Nymphs + Adults, C10: C10 (after third spray)
Description: (§1) In this evaluation, feeding damage & insect population on Okra Leaves before and after sprays is averaged and analyzed for the test of significance. Application method: Three applications (application A, B and C) within an interval of 14 days.

[2] = tested on: Okra Jassids (Amrasca bigutulla bigutulla); details: for Percent control (%) of Okra Jassids, Nymphs + Adults, A01: A01 = 1 day after first spray; for Percent control (%) of Okra Jassids, Nymphs + Adults, A10: A10 (after 1st spray); for Percent control (%) of Okra Jassids, Nymphs + Adults, B03: B03 = 3 days after 2nd spray; for Percent control (%) of Okra Jassids, Nymphs + Adults, B07: B07 (after 2nd spray); for Percent control (%) of Okra Jassids, Nymphs + Adults, B10: B10 (after 2nd spray); for Percent control (%) of Okra Jassids, Nymphs + Adults, B14: B14 (after 2nd spray); for Percent control (%) of Okra Jassids, Nymphs + Adults, C03: C03 = 3 days after third spray; for Percent control (%) of Okra Jassids, Nymphs + Adults, C10: C10 (after third spray)
Description: as §1

[3] = doses gm a.i./ha: OSA 25, Flonicamid 100, Acephate+Imidacloprid 520, Flonicamid+Fipronil 100+50, Imidacloprid 24.5, Acetamiprid 15
[4] = 25% reduced dose rate, gm a.i./ha: OSA 25, Flonicamid 75, Acephate+Imidacloprid 390, Flonicamid+Fipronil 75+37.5, Imidacloprid 18.3, Acetamiprid 11.2
[5] = reduced insecticide dose, gm a.i./ha: OSA 25, Flonicamid (Ulala) 75, Acephate+Imidacloprid 390, Flonicamid+Fipronil 75+37.5, Imidacloprid 18.3, Acetamiprid 11.2

| Compound | Percent control B07 (Okra Mites) [%] | Percent control C-01 (Okra Mites) [%] | Percent control C-10 (Okra Mites) [%] | Percent control Mean (Okra Mites) [%] | Percent control (%) of Okra Aphids, Nymphs + Adults, A01 [1, 3] [%] | Percent control (%) of Okra Aphids, Nymphs + Adults, A10 [1, 3] [%] | Percent control (%) of Okra Aphids, Nymphs + Adults, B03 [1, 3] [%] | Percent control (%) of Okra Aphids, Nymphs + Adults, B07 [1, 3] [%] | Percent control (%) of Okra Aphids, Nymphs + Adults, B10 [1, 3] [%] | Percent control (%) of Okra Aphids, Nymphs + Adults, C03 [1, 3] [%] | Percent control (%) of Okra Aphids, Nymphs + Adults, C10 [1, 3] [%] | Percent control (%) of Okra Jassids, Nymphs + Adults, A01 [2, 4] [%] | Percent control (%) of Okra Jassids, Nymphs + Adults, A01 [2, 3] [%] | Percent control (%) of Okra Jassids, Nymphs + Adults, A10 [2, 4] [%] | Percent control (%) of Okra Jassids, Nymphs + Adults, A10 [2, 3] [%] | Percent control (%) of Okra Jassids, Nymphs + Adults, B03 [2, 4] [%] | Percent control (%) of Okra Jassids, Nymphs + Adults, B03 [2, 3] [%] | Percent control (%) of Okra Jassids, Nymphs + Adults, B07 [2, 4] [%] | Percent control (%) of Okra Jassids, Nymphs + Adults, B07 [2, 3] [%] | Percent control (%) of Okra Jassids, Nymphs + Adults, B10 [2, 4] [%] | also measured |
| --- | --- | --- | --- | --- | --- | --- | --- | --- | --- | --- | --- | --- | --- | --- | --- | --- | --- | --- | --- | --- | --- |
| N#CCNC(=O)c1cnccc1C(F)(F)F [Flonicamid, N-cyanomethyl-4-trifluoromethylnicotinamide] | 31.8 | 39.5 | 34.0 | 35.1 | 78.2 | 91.9 | 95.1 | 95.5 | 93 | 94.7 | 94.9 | 71.2 | 74.8 | 85.8 | 89.3 | 82 | 90.7 | 89.3 | 93.3 | 91.5 | Percent control B01 (Okra Aphids; B01): 88.8%; Percent control C-01 (Okra Aphids; C-01): 91.8%; Percent control C-10 (Okra Aphids; C-10): 96%; Percent control Mean (Okra Aphids; Mean of B01, C-01, C-10): 92.2%; Percent control (%) of Okra Jassids, Nymphs + Adults, B10 [2, 3]: 94.2%; Percent control (%) of Okra Jassids, Nymphs + Adults, B14 [2, 4]: 87.4%; Percent control (%) of Okra Jassids, Nymphs + Adults, B14 [2, 3]: 89.3%; Percent control (%) of Okra Jassids, Nymphs + Adults, C03 [2, 4]: 90.2%; Percent control (%) of Okra Jassids, Nymphs + Adults, C03 [2, 3]: 93.3%; Percent control (%) of Okra Jassids, Nymphs + Adults, C10 [2, 4]: 92.5%; Percent control (%) of Okra Jassids, Nymphs + Adults, C10 [2, 3]: 94.4% |
| C/C(=N\C#N)N(C)Cc1ccc(Cl)nc1 [Acetamipirid, Acetamiprid] | 24.6 | 26.9 | 22.2 | 24.56 | 71.1 | 86.1 | 86.8 | 86.7 | 85 | 87.4 | 87.6 | 59.3 | 66.4 | 64.4 | 72.4 | 68.8 | 73.9 | 70.9 | 76.7 | 71.3 | Percent control (%) of Okra Aphids, Nymphs + Adults, A01 [1, 5]: 64.8%; Percent control (%) of Okra Aphids, Nymphs + Adults, A14 ([1]; A14 = 14 days after 1st spray, reduced insecticide dose, gm a.i./ha: OSA 25, Flonicamid (Ulala) 75, Acephate+Imidacloprid 390, Flonicamid+Fipronil 75+37.5, Imidacloprid 18.3, Acetamiprid 11.2): 74.7%; Percent control (%) of Okra Aphids, Nymphs + Adults, B03 [1, 5]: 79.7%; Percent control (%) of Okra Aphids, Nymphs + Adults, B07 [1, 5]: 81.8%; Percent control (%) of Okra Aphids, Nymphs + Adults, B10 [1, 5]: 82.5%; Percent control (%) of Okra Aphids, Nymphs + Adults, C03 [1, 5]: 86.9%; Percent control (%) of Okra Aphids, Nymphs + Adults, C10 [1, 5]: 86.5%; Percent control (%) of Okra Jassids, Nymphs + Adults, B10 [2, 3]: 76.9%; Percent control (%) of Okra Jassids, Nymphs + Adults, B14 [2, 4]: 66.6%; Percent control (%) of Okra Jassids, Nymphs + Adults, B14 [2, 3]: 70.9%; Percent control (%) of Okra Jassids, Nymphs + Adults, C03 [2, 4]: 69.5%; Percent control (%) of Okra Jassids, Nymphs + Adults, C03 [2, 3]: 74.8%; Percent control (%) of Okra Jassids, Nymphs + Adults, C10 [2, 4]: 70.7%; Percent control (%) of Okra Jassids, Nymphs + Adults, C10 [2, 3]: 79.3% |
